Source: PubChem BioAssay AID1963966 (Molecular Pharmacology Branch, DTP, NCI, 2024)

Tested on: 935938-334-R-J1-PDC spheroids with HUVEC/MSC, viability
Assay: Anticancer human tumor 935938-334-R-J1-PDC patient-derived small intestine adenocarcinoma cell line growth inhibition [PI3K]
Conditions: for IC50: curve of first compound; for viability, T/C: stronger effect = lower value
Summary of the method: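 Multi-cell spheroids combine tumor cells with HUVEC and human MSCs, treated with targeted agents alone or with inavolisib, alpelisib, duvelisib or copanlisib. Concentrations fall in half-log steps from at or near clinical Cmax, or from 10 microM where Cmax is unknown; viability read-out.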

[1] = second compound 0.0316 µM, first compound 0.00316 µM
[2] = second compound 0.0316 µM, first compound 0.01 µM
[3] = second compound 0.0316 µM, first compound 0.0316 µM
[4] = second compound 0.0316 µM, first compound 0.1 µM
[5] = second compound 0.1 µM, first compound 0.00316 µM
[6] = second compound 0.1 µM, first compound 0.01 µM
[7] = second compound 0.1 µM, first compound 0.0316 µM
[8] = second compound 0.1 µM, first compound 0.1 µM
[9] = second compound 0.316 µM, first compound 0.00316 µM
[10] = second compound 0.316 µM, first compound 0.01 µM
[11] = second compound 0.316 µM, first compound 0.0316 µM
[12] = second compound 0.316 µM, first compound 0.1 µM
[13] = second compound 1 µM, first compound 0.00316 µM
[14] = second compound 1 µM, first compound 0.01 µM
[15] = second compound 1 µM, first compound 0.0316 µM
[16] = second compound 1 µM, first compound 0.1 µM
[17] = second compound 3.16 µM, first compound 0.00316 µM
[18] = second compound 3.16 µM, first compound 0.01 µM
[19] = second compound 3.16 µM, first compound 0.0316 µM
[20] = second compound 3.16 µM, first compound 0.1 µM
[21] = second compound 10 µM, first compound 0.00316 µM
[22] = second compound 10 µM, first compound 0.01 µM
[23] = second compound 10 µM, first compound 0.0316 µM
[24] = second compound 10 µM, first compound 0.1 µM
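Note: compound exposure lasted seven days before viability was read.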
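Throughout, for viability, T/C: percent of vehicle DMSO treated spheroid viability so 100% = untreated.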

In the case of CCN1CCN(Cc2ccc(Nc3ncc(F)c(-c4cc(F)c5nc(C)n(C(C)C)c5c4)n3)nc2)CC1 + Cc1nc(NC(=O)N2CCCC2C(N)=O)sc1-c1ccnc(C(C)(C)C(F)(F)F)c1, the IC50 (second compound 0.0316 µM) is reported as 148 nM, the IC50 (second compound 0.1 µM) is reported as 43.2 nM and the IC50 (second compound 0.316 µM) is reported as 55.5 nM. It also gave an IC50 (second compound 1 µM) of 18.8 nM, an IC50 (second compound 3.16 µM) of less than 3.16 nM and an IC50 (second compound 10 µM) of less than 3.16 nM. It also gave a viability, T/C [1] of 88.8%, a viability, T/C [2] of 68.9% and a viability, T/C [3] of 64.3%. The viability, T/C [4] was 57.2%, the viability, T/C (second compound 0.0316 µM, first compound 0.316 µM) was 43% and the viability, T/C (second compound 0.0316 µM, first compound 1 µM) was 32.4%. It also gave a viability, T/C [5] of 94.5%, a viability, T/C [6] of 92.2% and a viability, T/C [7] of 53.3%. The viability, T/C [8] was 45.6%, the viability, T/C (second compound 0.1 µM, first compound 0.316 µM) was 37.5% and the viability, T/C (second compound 0.1 µM, first compound 1 µM) was 35.4%. For the same molecule, the viability, T/C [9] was 86.6%, the viability, T/C [10] was 71.4% and the viability, T/C [11] was 52.4%. For the same molecule, the viability, T/C [12] was 44.9%, the viability, T/C (second compound 0.316 µM, first compound 0.316 µM) was 41.2% and the viability, T/C (second compound 0.316 µM, first compound 1 µM) was 32.4%. The viability, T/C [13] was 69.7%, the viability, T/C [14] was 59.2% and the viability, T/C [15] was 40.8%. The viability, T/C [16] was 37.7%, the viability, T/C (second compound 1 µM, first compound 0.316 µM) was 26.1% and the viability, T/C (second compound 1 µM, first compound 1 µM) was 28.3%. It also gave a viability, T/C [17] of 41.5%, a viability, T/C [18] of 44.6% and a viability, T/C [19] of 42.6%. For the same molecule, the viability, T/C [20] was 30.7%, the viability, T/C (second compound 3.16 µM, first compound 0.316 µM) was 25.7% and the viability, T/C (second compound 3.16 µM, first compound 1 µM) was 30.1%. For the same molecule, the viability, T/C [21] was 39.2%, the viability, T/C [22] was 44.7% and the viability, T/C [23] was 34.1%. For the same molecule, the viability, T/C [24] was 26.2%, the viability, T/C (second compound 10 µM, first compound 0.316 µM) was 35% and the viability, T/C (second compound 10 µM, first compound 1 µM) was 28.5%.
Cn1ncnc1[C@H]1c2n[nH]c(=O)c3cc(F)cc(c23)N[C@@H]1c1ccc(F)cc1 + Cc1nc(NC(=O)N2CCCC2C(N)=O)sc1-c1ccnc(C(C)(C)C(F)(F)F)c1 gave an IC50 (second compound 0.0316 µM) greater than 100 nM, an IC50 (second compound 0.1 µM) greater than 100 nM and an IC50 (second compound 0.316 µM) greater than 100 nM. The IC50 (second compound 1 µM) was greater than 100 nM, the IC50 (second compound 3.16 µM) was 16.1 nM and the IC50 (second compound 10 µM) was less than 0.316 nM. For the same molecule, the viability, T/C (second compound 0.0316 µM, first compound 0.000316 µM) was 83.6%, the viability, T/C (second compound 0.0316 µM, first compound 0.001 µM) was 95.8% and the viability, T/C [1] was 112%. The viability, T/C [2] was 87.8%, the viability, T/C [3] was 72.1% and the viability, T/C [4] was 99%. For the same molecule, the viability, T/C (second compound 0.1 µM, first compound 0.000316 µM) was 81%, the viability, T/C (second compound 0.1 µM, first compound 0.001 µM) was 98.7% and the viability, T/C [5] was 99.9%. The viability, T/C [6] was 67.5%, the viability, T/C [7] was 84.2% and the viability, T/C [8] was 83.5%. The viability, T/C (second compound 0.316 µM, first compound 0.000316 µM) was 89.1%, the viability, T/C (second compound 0.316 µM, first compound 0.001 µM) was 67.3% and the viability, T/C [9] was 78%. The viability, T/C [10] was 61.4%, the viability, T/C [11] was 69.7% and the viability, T/C [12] was 78.7%. For the same molecule, the viability, T/C (second compound 1 µM, first compound 0.000316 µM) was 62.2%, the viability, T/C (second compound 1 µM, first compound 0.001 µM) was 70% and the viability, T/C [13] was 67.2%. The viability, T/C [14] was 57.6%, the viability, T/C [15] was 60% and the viability, T/C [16] was 55.4%. The viability, T/C (second compound 3.16 µM, first compound 0.000316 µM) was 63.1%, the viability, T/C (second compound 3.16 µM, first compound 0.001 µM) was 53.7% and the viability, T/C [17] was 46.6%. For the same molecule, the viability, T/C [18] was 58.2%, the viability, T/C [19] was 51.7% and the viability, T/C [20] was 42%. It also gave a viability, T/C (second compound 10 µM, first compound 0.000316 µM) of 39%, a viability, T/C (second compound 10 µM, first compound 0.001 µM) of 38.7% and a viability, T/C [21] of 43.8%. It also gave a viability, T/C [22] of 33%, a viability, T/C [23] of 50.5% and a viability, T/C [24] of 38.5%.
